Test results as given in patent publication US9023861B2, “Anticancer combination of artemisinin-based drugs and other chemotherapeutic agents” (Sigma-Tau Industrie Farmaceutiche Riunite, S.p.A., priority 2009, dated 2015).

What was measured:
[1] = system: NCI-H460 non-small cell lung carcinoma; test: In vivo antitumor activity, s.c. xenograft in CD1 nude mice; details: DHA 200 mg/kg p.o., AZD2281 100 mg/kg i.p., qdx5/wx3w
Protocol: NCI-H460 non-small cell lung carcinoma cells were inoculated subcutaneously (s.c.) in the right flank of CD1 nude mice (3×10^6/0.1 ml of Medium 199). Treatments started three days after tumour injection. Mice were subdivided (10 mice/group) in the following experimental groups:
(§1) a) Vehicle (DMSO 10%) 10 ml/kg, i.p.;
b) DHA 200 mg/kg, p.o. qdx5/wx3w;
d) AZD2281+DHA (doses and schedules as above).
For the latter experiment DHA was administered immediately before AZD2281.
To evaluate the antitumour activity, tumour diameters were measured with a Vernier calliper according to the formula TV=d^2×D/2 where d and D are the shortest and longest diameters, respectively.
When tumours reached a volume of about 1500 mm^3, mice were sacrificed by cervical dislocation. The efficacy of the drug was assessed as the tumour volume inhibition according to the formula reported underneath: […]
Body weight recording was carried out to evaluate body weight loss as calculated in the equation underneath: […]
Wherein BW day x corresponds to the mean weight at day x of the experiment meanwhile BW day 1 corresponds to the mean weight at the first day of the experiment.

[2] = system: HCT116 colon cancer cells; test: In vivo antitumour activity, s.c. xenograft in CD1 nude mice; details: DHA 200 mg/kg p.o., AZD2281 100 mg/kg i.p., qdx5/wx4w
Protocol: HCT116 colon cancer cells were inoculated subcutaneously (s.c.) in the right flank of CD1 nude mice (5×10^6/0.1 ml of Medium 199). Treatments started three days after tumour injection. Mice were subdivided (8 mice/group) in the following experimental groups:
as §1
b) DHA 200 mg/kg, p.o. qdx5/wx4w;
d) AZD2281+DHA (doses and schedules as above);
e) ABT-888 50 mg/kg, i.p. qdx5/wx4w;
f) ABT-888+DHA (doses and schedules as above).
DHA was administered immediately before AZD2281 or ABT-888.
The antitumour activity was evaluated according to the protocol reported hereinabove in example 3 when tumours reached a volume of about 500 mm^3.
Body weight recording was carried out to evaluate body weight loss according to the protocol reported hereinabove in example 3.

LoVo/Dx MDR = test: Anti-proliferative activity, sulphorodamine B test; assay type: cell-based; details: LoVo/Dx MDR; 24 h exposure, 48 h recovery
Protocol: (§2) The biological activity of DHA and ART on tumour cells survival was evaluated. The latter were seeded in 96-well tissue culture plates at approximately 10% confluence and were allowed to attach and recover for at least 24 h before being exposed to DHA or ART for 24 h at 37° C. They were then washed to remove DHA and ART and left to recover for 48 hours in medium culture. The medium culture was then removed and cells were washed three times with PBS. The plates were then incubated for on ice for 1 hour with 200 μl of PBS and 50 μl of cold 80% TCA before being washed with distilled water, dried on paper and finally at 40° C. for 5 minutes. 200 μl of 0.4% sulphorodamine B in 1% acetic acid were added and the incubation was prolonged for 30 minutes. Sulphorodamine B was removed, and the plates were washed 3 times with 1% acetic acid. They were finally dried on paper followed by standing at 40° C. for 5 minutes. Then 200 μl Tris 10 mM were added, the plates were kept under stirring for 20 minutes. Cell survival was determined as optical density at 540 nm by means of a Multiskan spectrofluorimeter. The amount of cells killed was expressed as the percentage decrease in sulphorodamine B binding compared to control cultures. IC50 were generated with their standard deviations by the ALLFIT program.

NCI-H460 = test: Anti-proliferative activity, sulphorodamine B test; assay type: cell-based; details: Homo sapiens, 24 h exposure, 48 h recovery
Protocol: as §2

A2780 = test: Anti-proliferative activity, sulphorodamine B test; assay type: cell-based; details: Homo sapiens, 24 h exposure, 48 h recovery
Protocol: as §2

HT29 = test: Anti-proliferative activity, sulphorodamine B test; assay type: cell-based; details: Homo sapiens, HT-29, 24 h exposure, 48 h recovery
Protocol: as §2

MCF-7/Dx MDR = test: Anti-proliferative activity, sulphorodamine B test; assay type: cell-based
Protocol: as §2

HCT116 = test: Anti-proliferative activity, sulphorodamine B test; assay type: cell-based; details: Homo sapiens, HCT-116, 24 h exposure, 48 h recovery
Protocol: as §2

LoVo = test: Anti-proliferative activity, sulphorodamine B test; assay type: cell-based; details: Homo sapiens, 24 h exposure, 48 h recovery
Protocol: as §2

MCF-7 = test: Anti-proliferative activity, sulphorodamine B test; assay type: cell-based; details: Homo sapiens, MCF7, 24 h exposure, 48 h recovery
Protocol: as §2

SW620 = test: Anti-proliferative activity, sulphorodamine B test; assay type: cell-based; details: Homo sapiens, SW-620, 24 h exposure, 48 h recovery
Protocol: as §2

SMILES: C[C@H]1[C@@H](O)O[C@@H]2O[C@@]3(C)CC[C@H]4[C@H](C)CC[C@@H]1[C@@]24OO3 [DHA, dihydroartemisinin]
- tolerability (body weight loss during the treatment) ([1]; NCI-H460 xenograft mice): well-tolerated
- BWL % ([1]; body weight loss, NCI-H460 xenograft, CD1 nude mice): 0%
- TVI % ([1]; tumour volume inhibition, NCI-H460 xenograft, CD1 nude mice): 3%
- TV ± SE ([1]; tumour volume, NCI-H460 xenograft, CD1 nude mice, sacrifice at about 1500 mm^3): 1575 ± 191
- tolerability (body weight loss during the treatment) ([2]; HCT116 xenograft mice, ABT-888 50 mg/kg): well-tolerated
- BWL % ([2]; body weight loss, HCT116 xenograft, CD1 nude mice, ABT-888 50 mg/kg i.p.): 1%
- TVI % ([2]; tumour volume inhibition, HCT116 xenograft, CD1 nude mice, ABT-888 50 mg/kg i.p.): 0%
- TV ± SE ([2]; tumour volume, HCT116 xenograft, CD1 nude mice, ABT-888 50 mg/kg i.p., evaluated at about 500 mm^3): 447 ± 39
- IC50 (LoVo/Dx MDR): 1.18 ± 0.3 µM
- IC50 (NCI-H460): 8.16 ± 0.5 µM
- IC50 (A2780): 0.23 ± 0.02 µM
- IC50 (HT29): 5.8 ± 0.5 µM
- IC50 (MCF-7/Dx MDR; MCF7/DX, MCF-7/Dx MDR, 24 h exposure, 48 h recovery): 0.97 ± 0.3 µM
- resistance index (MCF-7/Dx MDR; MCF-7/Dx MDR versus MCF-7): 0.92
- IC50 (HCT116): 0.37 ± 0.08 µM
- IC50 (LoVo): 2.57 ± 0.8 µM
- IC50 (MCF-7): 1.05 ± 0.08 µM
- IC50 (SW620): 1.8 ± 0.1 µM
